Read-outs that look alike come from different tables or passages of the source.
Assays:
PLK2 = PLK2 (Homo sapiens (Human), UniProt Q9NYY3); experiment: PLK2 kinase activity in vitro, 33P isotope-labeled kinase activity test; assay type: biochemical; settings: 33P-ATP 30 μM, PLK2 15 nM
Description: (§1) The ^33P isotope-labeled kinase activity test (Reaction Biology Corp) was used to determine the IC50 value to evaluate the inhibitory ability of the test compound to the human PLK family protein kinase PLK2/PLK3/PLK4.
(§2) Buffer conditions: 20 mM HEPES (pH 7.5), 10 mM MgC2, 1 mM EGTA, 0.01% Brij35, 0.02 mg/ml BSA, 0.1 mM Na3VO4, 2 mM DTT, 1% DMSO.
(§3) Test steps: At room temperature, the compounds to be tested were dissolved in DMSO to prepare a 10 mM solution for use. The substrate Casein was dissolved in the freshly prepared buffer (with a final concentration of 20 μM), and the tested PLK2/PLK3/PLK4 kinases (with a final concentration of 15/10/150 nM, respectively) were added thereto and mixed well. The acoustic wave pipetting system Echo 550 was used to add the mother solution of the test compound dissolved in DMSO to the above mixed reaction mixture according to the set final concentration gradient (the highest final concentration was 1 μM, 3-fold dilution, 10 gradients). After incubation at room temperature for 20 minutes, ^33P-ATP (with a final concentration of 30/50/10 μM, respectively) was added, then after incubation at room temperature for 120 minutes, the reaction mixture was spotted on P81 ion exchange filter paper (Whatman #3698-915).

PLK3 = PLK3 (Homo sapiens (Human), UniProt Q9H4B4); experiment: PLK3 kinase activity in vitro, 33P isotope-labeled kinase activity test; assay type: biochemical; settings: 33P-ATP 50 μM, PLK3 10 nM
PLK3, sequence (Q9H4B4 whole entry): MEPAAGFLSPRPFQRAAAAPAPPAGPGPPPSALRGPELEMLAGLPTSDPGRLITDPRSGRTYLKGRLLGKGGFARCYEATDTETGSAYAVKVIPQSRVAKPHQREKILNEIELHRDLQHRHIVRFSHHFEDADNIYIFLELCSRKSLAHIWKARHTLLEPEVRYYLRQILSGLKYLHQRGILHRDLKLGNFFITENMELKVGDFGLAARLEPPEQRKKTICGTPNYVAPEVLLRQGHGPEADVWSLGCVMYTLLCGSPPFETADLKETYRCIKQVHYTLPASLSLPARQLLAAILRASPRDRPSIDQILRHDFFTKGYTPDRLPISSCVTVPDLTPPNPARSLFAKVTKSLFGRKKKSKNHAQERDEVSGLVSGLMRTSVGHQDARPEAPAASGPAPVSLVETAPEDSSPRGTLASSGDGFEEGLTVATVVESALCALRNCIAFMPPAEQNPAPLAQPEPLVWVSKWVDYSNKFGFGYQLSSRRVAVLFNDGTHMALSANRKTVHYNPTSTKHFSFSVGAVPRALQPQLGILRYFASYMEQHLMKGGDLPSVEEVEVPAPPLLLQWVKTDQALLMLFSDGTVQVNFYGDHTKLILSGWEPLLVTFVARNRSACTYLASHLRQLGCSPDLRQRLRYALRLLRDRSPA
Description: as §1, §2, §3

PLK4 = PLK4 (Homo sapiens (Human), UniProt O00444); experiment: PLK4 kinase activity in vitro, 33P isotope-labeled kinase activity test; assay type: biochemical; settings: 33P-ATP 10 μM, PLK4 150 nM
PLK4, sequence (O00444 whole entry): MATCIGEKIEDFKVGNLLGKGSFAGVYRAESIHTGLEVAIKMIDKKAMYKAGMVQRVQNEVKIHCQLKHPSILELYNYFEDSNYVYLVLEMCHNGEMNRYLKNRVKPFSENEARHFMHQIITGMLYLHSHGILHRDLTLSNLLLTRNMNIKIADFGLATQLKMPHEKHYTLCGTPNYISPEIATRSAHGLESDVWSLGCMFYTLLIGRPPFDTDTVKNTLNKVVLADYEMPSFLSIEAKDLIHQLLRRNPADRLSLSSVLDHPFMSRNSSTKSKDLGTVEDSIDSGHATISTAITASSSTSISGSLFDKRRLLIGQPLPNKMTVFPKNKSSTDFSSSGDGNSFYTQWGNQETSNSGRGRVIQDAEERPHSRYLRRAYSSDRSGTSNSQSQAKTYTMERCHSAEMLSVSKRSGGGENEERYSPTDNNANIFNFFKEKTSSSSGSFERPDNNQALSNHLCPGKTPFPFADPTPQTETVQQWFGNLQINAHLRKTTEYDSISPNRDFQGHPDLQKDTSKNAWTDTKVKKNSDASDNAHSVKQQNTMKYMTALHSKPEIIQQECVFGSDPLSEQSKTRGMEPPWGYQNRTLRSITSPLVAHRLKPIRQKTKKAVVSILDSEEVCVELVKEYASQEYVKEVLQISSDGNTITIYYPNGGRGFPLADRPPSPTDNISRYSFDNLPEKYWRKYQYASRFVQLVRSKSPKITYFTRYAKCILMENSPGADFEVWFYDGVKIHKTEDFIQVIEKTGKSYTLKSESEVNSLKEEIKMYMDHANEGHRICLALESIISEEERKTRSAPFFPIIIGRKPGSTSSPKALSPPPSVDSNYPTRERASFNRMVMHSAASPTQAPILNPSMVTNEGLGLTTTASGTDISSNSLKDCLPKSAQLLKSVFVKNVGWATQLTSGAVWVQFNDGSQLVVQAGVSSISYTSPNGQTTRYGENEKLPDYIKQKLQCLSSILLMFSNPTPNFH
Description: as §1, §2, §3

HCT116 cells = experiment: HCT116 cytological activity in vitro (3D CellTiter-Glo proliferation); assay type: cell-based, human; settings: Homo sapiens, HCT-116, 120 h, 5 days culture, ultra-low adsorption plates
Description: McCoy's 5A medium, penicillin/streptomycin antibiotics was purchased from Vicente, and fetal bovine serum was purchased from Biosera. 3D CellTiter-Glo (cell viability chemiluminescence assay reagent) reagent was purchased from Promega. HCT116 cell line was purchased from Nanjing Cobioer Biosciences Co., Ltd. Envision multimode microplate reader (PerkinElmer).
HCT116 cells were seeded in ultra-low adsorption 96-well U-plates, 80 μL of cell suspension per well, which contained 1000 HCT116 cells. Cell plates were cultured overnight in a carbon dioxide incubator.
The compound to be tested was 5-fold diluted to the 9th concentration with a pipette, that is, diluted from 2 mM to 5.12 nM, and a double-well experiment was set up. 78 μL of medium was added to the intermediate plate, and then 2 μL of each well of the gradient diluted compound was transferred to the intermediate plate according to the corresponding position, 20 μL of each well was transferred to the cell plate after mixing well. Compound concentrations transferred to cell plates ranged from 10 μM to 0.0256 nM. Cell plates were cultured in a carbon dioxide incubator for 5 days. Another cell plate was prepared, and the signal value was read as the maximum value (Max value in the following equation) on the day of drug addition to participate in data analysis.
Every 100 μL of cell viability chemiluminescent detection reagent was added to the cell plate, and incubated at room temperature for 10 minutes to stabilize the luminescent signal. A multimode microplate reader was used to read.
The equation (Sample−Min)/(Max−Min)*100% was used to convert the original data into an inhibition rate, and the value of IC50 can be obtained by curve fitting with four parameters (“log(inhibitor) vs. response in GraphPad Prism—Variable slope” mode). Table 3 provides the inhibitory activity of the compounds of the present disclosure against the proliferation of HCT116 cells.

[1] = Pharmacokinetic study in CD-1 male mice by oral administration and intravenous injection; assay type: in vivo; settings: mouse, plasma; for AUC(0-t): read-out: Area under the plasma concentration-time curve AUC0-24 h
Description: The purpose of this experiment is to study the pharmacokinetics of the test compound in the plasma of CD-1 male mice after intravenous injection and oral administration.
Intravenous injection group: an appropriate amount of the test compound was weighed and dissolved in 20% SBE-b-CD aqueous solution and the pH was adjusted to 4 to 5 with 6 M hydrochloric acid, and the mixture was vortexed for 2, minutes to obtain a clear solution, and then pH was adjusted around 7 with 5 N sodium hydroxide, and the mixture was vortexed for 1 minute to prepare a 1.5 mg/mL clear solution, which was filtered through a 0.22 μm microporous membrane for later use. CD-1 male mice from 6 to 10 weeks old were selected and given a solution of the test compound intravenously. Samples were collected at 0.083, 0.25, 0.5, 1, 2, 4, 6, 8, and 24 hours.
Oral administration group: an appropriate amount of the test compound was weighed and dissolved in 20% SBE-b-CD aqueous solution, and the pH was adjusted to 3 to 4 with 6 M hydrochloric acid, and the mixture was vortexed for 2, minutes to obtain a clear solution, and then pH was adjusted around 7 with 5 N sodium hydroxide, and mixture was vortexed for 1 minute to prepare a 2.0 mg/mL clear solution for later use. CD-1 male mice between 6 and 10 weeks of age were selected and given the test compounds orally. Samples were collected at 0.25, 0.5, 1, 2, 4, 6, 8, 10, and 24 hours.
Approximately 50 μL of whole blood was collected through the jugular vein at each time point for plasma preparation for concentration determination by high performance liquid chromatography-tandem mass spectrometry (LC-MS/MS). All animals were euthanized under CO2 anesthesia after collecting the PK samples at the last time point. The plasma concentration was processed using the non-compartmental model of WinNonlin™ Version 6.3 (Pharsight, Mountain View, CA) pharmacokinetic software, and the pharmacokinetic parameters were calculated using the linear logarithmic trapezoidal method, and the experimental results are shown in Table 4.

[2] = test system: human colon cancer HCT116 cells subcutaneous xenograft tumor; experiment: In vivo pharmacodynamic study, subcutaneous xenograft tumor model of human colon cancer HCT116 cells; design: species or system BALB/c Nude mouse; settings: tumor volume on day 22 after dosing
Description: In this experiment, human colon cancer HCT116 cells were subcutaneously transplanted into BALB/c Nude mouse model to evaluate the antitumor effect of the test compound in vivo.
HCT116 cell culture: 10% fetal calf serum was added to McCoy's 5A medium and cultured in 37° C. 5% CO2 cell incubator. When the cell saturation reached 80% to 90% and the number reached the requirement, cells were collected, counted and inoculated subcutaneously into BALB/c Nude mice (female, 6 to 7 weeks old)
When the tumors grew to a certain size, the animals with tumor volumes that were too large, too small, or with irregular tumor shapes were eliminated, and animals with tumor volumes ranging from 103.12 to 174.35 mm^3 were selected. According to the tumor volume, the animals were divided into 6 groups by random block method, and each group was composed of 6 mice wherein the average volume of the tumor was about 147.12 mm^3 , and the experimental grouping and dosing regimen were shown in Table 5 below. The health status and death of the animals were monitored every day. Routine inspections included observation of tumor growth and the effects of drug treatment on the daily behavior of the animals, such as behavioral activities, food and water intake, body weight changes (measured twice a week), tumor size (tumor volume was measured twice a week), appearance signs or other abnormal conditions.
The formula for calculating tumor volume (TV) was: ½×a×b^2, where a and b were the measured length and width of the tumor, respectively. The formula for calculating the tumor inhibition rate TGI (%) was: TGI (%)=[1−(average tumor volume at the end of administration of a certain treatment group−average tumor volume at the beginning of administration of this treatment group)/(average tumor volume at the end of treatment of the solvent control group−average tumor volume at the beginning of treatment in solvent control group)]×100%.
In this study, the experimental data were expressed as Mean±SEM. Statistical analysis was based on the data of RTV at the end of the experiment using IBM SPSS Statistics software. The comparison between two groups was analyzed by T test, and the comparison between three or more groups was analyzed by one-way ANOVA. If the variances were homogeneous (the F value had no significant difference), the Tukey's method was used for analysis. If the variances were not homogeneous (the F value had significant differences), and the Games-Howell method was used for testing. p<0.05 was considered as a significant difference.

PLK2, sequence (Q9NYY3 whole entry): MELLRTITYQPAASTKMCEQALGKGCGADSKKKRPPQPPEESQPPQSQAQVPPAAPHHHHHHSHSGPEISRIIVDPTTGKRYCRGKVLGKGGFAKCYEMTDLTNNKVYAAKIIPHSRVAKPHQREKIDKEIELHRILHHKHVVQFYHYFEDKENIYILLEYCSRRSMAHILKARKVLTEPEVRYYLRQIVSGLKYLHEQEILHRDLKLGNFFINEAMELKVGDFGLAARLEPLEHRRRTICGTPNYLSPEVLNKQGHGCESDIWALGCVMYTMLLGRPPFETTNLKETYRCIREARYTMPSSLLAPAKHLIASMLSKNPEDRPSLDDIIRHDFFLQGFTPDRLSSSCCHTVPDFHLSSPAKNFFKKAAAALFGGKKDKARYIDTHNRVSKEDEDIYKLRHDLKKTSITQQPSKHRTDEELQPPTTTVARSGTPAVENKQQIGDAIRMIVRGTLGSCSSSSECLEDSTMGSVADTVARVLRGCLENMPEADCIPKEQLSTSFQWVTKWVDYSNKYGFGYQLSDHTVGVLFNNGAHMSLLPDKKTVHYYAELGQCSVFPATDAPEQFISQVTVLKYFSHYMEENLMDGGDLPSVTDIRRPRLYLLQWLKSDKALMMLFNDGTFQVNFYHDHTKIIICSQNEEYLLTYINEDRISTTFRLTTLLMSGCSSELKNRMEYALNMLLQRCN

CSc1sc(C(N)=O)c2c1-c1nc(Nc3cc(N4CCN(C)CC4)ccc3OC(F)(F)F)ncc1CC2 [Compound 1]
IC50 (PLK2): > 10 µM | IC50 (PLK3): > 10 µM | IC50 (PLK4): > 10 µM | IC50 (HCT116 cells): 0.027 µM | Vd ([1]; IV, 0.5 mg/kg, read-out: Apparent volume of distribution Vdss): 3.37 L/kg | AUC(0-t) ([1]; IV, 0.5 mg/kg): 0.41 µM·h | clearance ([1]; IV, 0.5 mg/kg, read-out: Clearance CL): 37.8 mL/min/kg | half-life ([1]; IV, 0.5 mg/kg, read-out: Half-life T½ (converted)): 1.47 h | AUC(0-t) ([1]; PO, 2.0 mg/kg): 1.05 µM·h | Cmax ([1]; PO, 2.0 mg/kg, read-out: Peak concentration Cmax): 386 nM | Tmax ([1]; PO, 2.0 mg/kg, read-out: Peak time Tmax): 0.75 h | bioavailability ([1]; PO 2.0 mg/kg vs IV 0.5 mg/kg, read-out: Bioavailability F): 66.4% | TGI ([2]; 30 mg/kg PO QD (5 days on, 2 days off)): 72.9% | TGI ([2]; 45 mg/kg PO QD (5 days on, 2 days off)): 87.3%

From patent publication US20240140962A1, “5,6-DIHYDROTHIENO[3,4-H]QUINAZOLINE COMPOUND” (MEDSHINE DISCOVERY INC., priority 2021, published 2024)
